Results on 13 compounds are retold here after patent US20110098296A1, “Thiazole And Oxazole Kinase Inhibitors” (priority 2007, published 2011).

Structures are written as SMILES. Structures can show the parent of a compound that is named as a salt.

The test system of test [1] is HN5 tumor cells. In words: Method C: Cell Growth Inhibition Assay (CellTiter-Glo), HN5. It counts as cell-based. The following applies: Homo sapiens, 72 h, 3 days, 4-parameter fit. An outline of the steps:
(§1)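 Growth inhibition is expressed as the concentration giving 50% inhibition relative to vehicle controls, derived from a 4-parameter fit. Tumor cells plated at 500 per well were exposed for 3 days to compound (0.2% DMSO) before total ATP was quantified by CellTiter-Glo.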

For test [2], the target named is T1, EGFR (Homo sapiens, UniProt P00533).
T1 construct: made in house; host or cells: baculovirus expression system
In words: EGFR substrate phosphorylation assay (HTRF). The following applies: Method (A): Enzyme Mix incubated with compound at 20° C. for 1 hr, reaction started by adding Substrate Mix. It counts as biochemical. The method, boiled down:
(§2)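 Baculovirus-expressed kinase (0.8 nM EGFR or 10 nM ErbB2 in enzyme mix) with Peptide C 0.8 μM and ATP 20 μM (substrate-mix levels), MOPS pH 7.5, MnCl2; 90 min, 20 °C, HTRF anti-phosphotyrosine. Method A adds 1 h enzyme–compound preincubation; B none. pIC50, final compound 0.00027–47.6 μM.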

Test [3] deals with Colo205 tumor cells. As to the kind of experiment: Method C: Cell Growth Inhibition Assay (CellTiter-Glo), Colo205. The following applies: Homo sapiens, COLO 205, 72 h, 3 days, 4-parameter fit. It counts as cell-based. The method, boiled down: (§3)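 Luminescent ATP signal (CellTiter-Glo, after 30 min room-temperature equilibration) served as a surrogate for cell number after a 3-day compound exposure at 37° C. Cells were plated at 500/well and treated with serially diluted compound at 0.2% DMSO. IC50 values are 4-parameter fits against DMSO-treated wells.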

The subject of test [4] is BT474 tumor cells. In words: Method C: Cell Growth Inhibition Assay (CellTiter-Glo), BT474. It counts as cell-based. The following applies: Homo sapiens, BT-474, 72 h, 3 days, 4-parameter fit.
For test [5], the system named is HT-29 tumor cells. As to the kind of experiment: Method C: Cell Growth Inhibition Assay (CellTiter-Glo), HT-29. It counts as cell-based. The following applies: Homo sapiens, HT-29, 72 h, 3 days, 4-parameter fit. An outline of the steps: as §1
In test [6] the test system is A375P F11s tumor cells. As to the kind of experiment: Method C: Cell Growth Inhibition Assay (CellTiter-Glo), A375P F11s. Format: cell-based. The following applies: Homo sapiens, 72 h, 3 days, 4-parameter fit. An outline of the steps: as §1
The test system of test [7] is SK-MEL-28 tumor cells. As to the kind of experiment: Method C: Cell Growth Inhibition Assay (CellTiter-Glo), SK-MEL-28. The following applies: Homo sapiens, SK-MEL-28, 72 h, 3 days, 4-parameter fit. Format: cell-based. An outline of the steps: as §1
In test [8] the target is T2, ErbB2 (Homo sapiens, UniProt P04626).
T2 construct: made in house; host or cells: baculovirus expression system
In words: ErbB-2 substrate phosphorylation assay (HTRF). It counts as biochemical. The following applies: Method (A): Enzyme Mix incubated with compound at 20° C. for 1 hr, reaction started by adding Substrate Mix. The method, boiled down: as §2

In test [9] the test system is SK-MEL-3 tumor cells. In words: Method C: Cell Growth Inhibition Assay (CellTiter-Glo), SK-MEL-3. It counts as cell-based. The following applies: Homo sapiens, SK-MEL3, 72 h, 3 days, 4-parameter fit. An outline of the steps:
as §3

T1 sequence (P00533 25-1210): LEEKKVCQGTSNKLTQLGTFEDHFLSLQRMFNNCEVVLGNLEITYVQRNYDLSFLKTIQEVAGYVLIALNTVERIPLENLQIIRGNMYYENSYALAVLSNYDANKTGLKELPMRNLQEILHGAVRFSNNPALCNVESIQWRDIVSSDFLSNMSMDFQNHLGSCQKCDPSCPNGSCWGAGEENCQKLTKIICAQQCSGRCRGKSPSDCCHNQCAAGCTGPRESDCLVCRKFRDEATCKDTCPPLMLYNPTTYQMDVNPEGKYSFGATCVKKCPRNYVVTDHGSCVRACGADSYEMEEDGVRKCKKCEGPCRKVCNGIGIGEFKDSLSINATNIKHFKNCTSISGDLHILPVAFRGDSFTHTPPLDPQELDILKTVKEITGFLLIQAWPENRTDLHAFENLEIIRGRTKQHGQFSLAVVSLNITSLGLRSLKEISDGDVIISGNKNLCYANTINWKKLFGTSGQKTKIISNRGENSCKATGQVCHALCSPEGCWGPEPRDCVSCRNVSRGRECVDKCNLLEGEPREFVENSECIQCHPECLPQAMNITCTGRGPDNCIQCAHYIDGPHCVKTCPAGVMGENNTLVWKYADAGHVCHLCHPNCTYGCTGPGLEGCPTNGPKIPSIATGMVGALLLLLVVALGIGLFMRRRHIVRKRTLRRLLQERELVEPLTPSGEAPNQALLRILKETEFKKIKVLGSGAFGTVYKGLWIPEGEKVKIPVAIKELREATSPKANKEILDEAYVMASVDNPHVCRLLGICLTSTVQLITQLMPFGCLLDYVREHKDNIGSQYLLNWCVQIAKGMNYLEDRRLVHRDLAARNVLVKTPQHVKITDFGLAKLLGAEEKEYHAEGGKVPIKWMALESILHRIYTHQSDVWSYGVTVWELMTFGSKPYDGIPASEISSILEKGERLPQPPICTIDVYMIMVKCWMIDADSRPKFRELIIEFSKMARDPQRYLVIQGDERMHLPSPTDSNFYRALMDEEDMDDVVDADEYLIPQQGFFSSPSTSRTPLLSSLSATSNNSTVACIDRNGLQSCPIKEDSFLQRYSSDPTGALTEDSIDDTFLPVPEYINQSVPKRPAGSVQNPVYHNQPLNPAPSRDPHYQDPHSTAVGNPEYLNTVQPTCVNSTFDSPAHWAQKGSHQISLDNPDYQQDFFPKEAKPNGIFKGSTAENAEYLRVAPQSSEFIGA
T2 sequence (P04626 23-1255): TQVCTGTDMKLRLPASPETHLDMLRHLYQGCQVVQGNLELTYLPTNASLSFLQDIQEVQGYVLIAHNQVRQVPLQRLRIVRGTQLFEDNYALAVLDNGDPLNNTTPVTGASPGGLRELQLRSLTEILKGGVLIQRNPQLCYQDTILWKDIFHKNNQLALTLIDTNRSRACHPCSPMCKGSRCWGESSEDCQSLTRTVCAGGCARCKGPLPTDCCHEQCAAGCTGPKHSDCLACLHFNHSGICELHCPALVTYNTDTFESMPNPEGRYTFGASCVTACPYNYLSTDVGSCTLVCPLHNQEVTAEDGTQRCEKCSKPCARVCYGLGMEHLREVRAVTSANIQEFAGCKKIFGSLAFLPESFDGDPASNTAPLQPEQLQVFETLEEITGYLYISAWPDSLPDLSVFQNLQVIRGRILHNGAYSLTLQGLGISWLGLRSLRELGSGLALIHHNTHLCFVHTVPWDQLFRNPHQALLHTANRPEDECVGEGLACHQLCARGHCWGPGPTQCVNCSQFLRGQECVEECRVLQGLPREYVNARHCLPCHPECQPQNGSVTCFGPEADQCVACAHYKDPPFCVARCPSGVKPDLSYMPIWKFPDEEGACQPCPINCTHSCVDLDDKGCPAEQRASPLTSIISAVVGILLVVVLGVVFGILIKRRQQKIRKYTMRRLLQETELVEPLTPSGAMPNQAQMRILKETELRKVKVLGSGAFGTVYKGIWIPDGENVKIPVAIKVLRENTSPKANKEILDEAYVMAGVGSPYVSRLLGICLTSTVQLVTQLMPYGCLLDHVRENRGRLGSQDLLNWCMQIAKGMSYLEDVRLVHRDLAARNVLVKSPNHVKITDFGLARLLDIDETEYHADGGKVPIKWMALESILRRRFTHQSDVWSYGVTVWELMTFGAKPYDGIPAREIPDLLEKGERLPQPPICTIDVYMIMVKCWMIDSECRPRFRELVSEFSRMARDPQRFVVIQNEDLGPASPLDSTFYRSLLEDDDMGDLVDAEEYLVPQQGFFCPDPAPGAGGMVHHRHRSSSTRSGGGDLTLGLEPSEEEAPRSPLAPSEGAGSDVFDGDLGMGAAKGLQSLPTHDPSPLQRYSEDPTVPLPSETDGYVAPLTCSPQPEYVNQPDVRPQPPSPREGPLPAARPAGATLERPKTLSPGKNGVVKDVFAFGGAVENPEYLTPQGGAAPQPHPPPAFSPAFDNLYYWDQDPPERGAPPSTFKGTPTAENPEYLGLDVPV

Regarding `CCNc1nc(-c2cccc(NC(=O)c3c(F)cccc3F)c2)c(-c2ccnc(Nc3ccc(CCN4CCCC4)c(F)c3)n2)s1` [Example 26, N-(3-{2-(Ethylamino)-5-[2-({3-fluoro-4-[2-(1-pyrrolidinyl)ethyl]phenyl}amino)-4-pyrimidinyl]-1,3-thiazol-4-yl}phenyl)-2,6-difluorobenzamide trifluoroacetate], the IC50 in [1] was 100 to 1000 nM; in [2], less than 100 nM; in [3], 100 to 1000 nM; in test [4], 100 to 1000 nM; in test [5], 100 to 1000 nM; in test [6] it was 100 to 1000 nM. Moreover, the IC50 in [7] is 100 to 1000 nM; in test [8], less than 100 nM; in test [9], 100 to 1000 nM.

For the compound `CN(C)CCOc1ccc(Nc2nccc(-c3sc(N)nc3-c3cccc(NC(=O)c4c(F)cccc4F)c3)n2)cc1Cl` [Example 5, N-(3-{2-Amino-5-[2-({3-chloro-4-[2-(dimethylamino)ethoxy]-phenyl}amino)pyrimidin-4-yl]-1,3-thiazol-4-yl}phenyl)-2,6-difluorobenzamide-formic acid], the IC50 is less than 100 nM in test [1]; less than 100 nM in test [2]; 100 to 1000 nM in test [3]; less than 100 nM in test [4]; 100 to 1000 nM in [5]; 100 to 1000 nM in test [6]. Further, the figures for the IC50 in test [7], in [8] and in [9] were 100 to 1000 nM, less than 100 nM and 100 to 1000 nM, respectively.

For `COc1ccc(Nc2nccc(-c3sc(N)nc3-c3cccc(NC(=O)c4c(F)cccc4F)c3)n2)cc1N1CCN(C)CC1` [Example 11, N-{3-[2-Amino-5-(2-{[4-(methyloxy)-3-(4-methyl-1-piperazinyl)phenyl]amino}-4-pyrimidinyl)-1,3-thiazol-4-yl]phenyl}-2,6-difluorobenzamide trifluoroacetate], the IC50 in [1] was less than 100 nM; in test [2], less than 100 nM; in test [3], 100 to 1000 nM; in [4] it was less than 100 nM; in test [5], 100 to 1000 nM; in test [6], 100 to 1000 nM. Besides, the IC50 in [7] is less than 100 nM; in test [8] it was less than 100 nM; in test [9] it was 100 to 1000 nM.

In the case of `CN(C)CCOc1cccc(Nc2nccc(-c3sc(N)nc3-c3cccc(NC(=O)c4c(F)cccc4F)c3)n2)c1` [Example 22, N-[3-(2-Amino-5-{2-[(3-{[2-(dimethylamino)ethyl]oxy}phenyl)amino]-4-pyrimidinyl}-1,3-thiazol-4-yl)phenyl]-2,6-difluorobenzamide], the IC50 in test [1] was less than 100 nM; in test [2], less than 100 nM; in [3], 100 to 1000 nM; in [4] it was less than 100 nM; in [5], 100 to 1000 nM; in test [6], 100 to 1000 nM. Further, the IC50 is 100 to 1000 nM in test [7], less than 100 nM in [8] and 100 to 1000 nM in [9].

On to `O=C(Nc1cccc(-c2nc(CO)sc2-c2ccnc(Nc3ccc(OCCN4CCCC4)c(F)c3)n2)c1)c1c(F)cccc1F` [Example 126, 2,6-Difluoro-N-{3-[5-{2-[(3-fluoro-4-{[2-(1-pyrrolidinyl)ethyl]oxy}phenyl)amino]-4-pyrimidinyl}-2-(hydroxymethyl)-1,3-thiazol-4-yl]phenyl}benzamide], for which the IC50 in test [1] is less than 100 nM; in test [2] it was less than 100 nM; in test [3], 100 to 1000 nM; in [4], less than 100 nM; in test [5] it was 100 to 1000 nM; in [6] it was 100 to 1000 nM. Also, the values for the IC50 in test [7], in [8] and in test [9] were 100 to 1000 nM, less than 100 nM and 100 to 1000 nM, respectively.

As for `COc1ccc(Nc2nccc(-c3sc(NC4CC4)nc3-c3cccc(NC(=O)c4c(F)cccc4F)c3)n2)cc1OCCN(C)C` [Example 32, N-{3-[2-(cyclopropylamino)-5-(2-{[3-{[2-(dimethylamino)ethyl]oxy}-4-(methyloxy)phenyl]amino}-4-pyrimidinyl)-1,3-thiazol-4-yl]phenyl}-2,6-difluorobenzamide], the IC50 in test [1] was less than 100 nM; in test [2], less than 100 nM; in test [3], 100 to 1000 nM; in [4], 100 to 1000 nM; in [5] it was 100 to 1000 nM; in test [6] it was 100 to 1000 nM. For the same compound, the results for the IC50 in [7], in [8] and in test [9] were 100 to 1000 nM, less than 100 nM and 100 to 1000 nM, respectively.

For the compound `CCNc1nc(-c2cccc(NC(=O)c3c(F)cccc3F)c2)c(-c2ccnc(Nc3ccc(OCCN(C)C)c(Cl)c3)n2)s1` [Example 25], the IC50 in test [1] was 100 to 1000 nM; in test [2] it was less than 100 nM; in test [3], 100 to 1000 nM; in test [4], 100 to 1000 nM; in [5], 100 to 1000 nM; in [6], 100 to 1000 nM. The results for the IC50 in test [7], in test [8] and in [9] were 100 to 1000 nM, less than 100 nM and 100 to 1000 nM, respectively.

For `CN1CCc2ccc(Nc3nccc(-c4sc(NCCCN5CCOCC5)nc4-c4cccc(NC(=O)c5c(F)cccc5F)c4)n3)cc2C1` [Example 31], the IC50 in test [1] was less than 100 nM; in test [2], less than 100 nM; in test [3], 100 to 1000 nM; in test [4], 100 to 1000 nM; in test [5], 100 to 1000 nM; in test [6], 100 to 1000 nM. Besides, the IC50 in test [7] is more than 1000 nM; in test [8] it was less than 100 nM; in test [9], 100 to 1000 nM.

With `CN(C)CCOc1ccc(Nc2nccc(-c3sc(N)nc3-c3cccc(NC(=O)c4cc(F)ccc4F)c3)n2)cc1Cl` [Example 56], the IC50 in test [1] was less than 100 nM; in test [2] it was less than 100 nM; in [3] it was 100 to 1000 nM; in [4], less than 100 nM; in test [5], 100 to 1000 nM; in [6] it was 100 to 1000 nM. The figures for the half-inhibitory concentration (IC50) in test [7], in test [8] and in test [9] were more than 1000 nM, less than 100 nM and more than 1000 nM, respectively.

As to `COCCNc1nc(-c2cccc(NC(=O)c3c(F)cccc3F)c2)c(-c2ccnc(Nc3ccc(OCCN4CCCC4)c(Cl)c3)n2)s1` [Example 27, N-[3-(5-{2-[(3-Chloro-4-{[2-(1-pyrrolidinyl)ethyl]oxy}phenyl)amino]-4-pyrimidinyl}-2-{[2-(methyloxy)ethyl]amino}-1,3-thiazol-4-yl)phenyl]-2,6-difluorobenzamide], the IC50 in test [1] is less than 100 nM; in test [2], less than 100 nM; in test [3], 100 to 1000 nM; in test [4] it was less than 100 nM; in test [5], 100 to 1000 nM; in test [6], 100 to 1000 nM. For the same compound, the 50% inhibitory concentration (IC50) is 100 to 1000 nM in test [7], less than 100 nM in test [8] and 100 to 1000 nM in [9].

As to `Cc1nc(-c2cccc(NC(=O)c3c(F)cccc3F)c2)c(-c2ccnc(Nc3ccc(OC4CCN(C(C)C)CC4)c(F)c3)n2)s1` [Example 111, 2,6-Difluoro-N-[3-(5-{2-[(3-fluoro-4-{[1-(1-methylethyl)-4-piperidinyl]oxy}phenyl)amino]-4-pyrimidinyl}-2-methyl-1,3-thiazol-4-yl)phenyl]benzamide], the IC50 was 100 to 1000 nM in [1]; less than 100 nM in [2]; 100 to 1000 nM in test [3]; less than 100 nM in test [4]; 100 to 1000 nM in [5]; 100 to 1000 nM in [6]. Moreover, the IC50 is 100 to 1000 nM in [7], less than 100 nM in test [8] and 100 to 1000 nM in test [9].

With `CC(=O)N1CCC(Oc2ccc(Nc3nccc(-c4sc(C)nc4-c4cccc(NC(=O)c5c(F)cccc5F)c4)n3)cc2F)CC1` [Example 109, N-(3-{5-[2-({4-[(1-Acetyl-4-piperidinyl)oxy]-3-fluorophenyl}amino)-4-pyrimidinyl]-2-methyl-1,3-thiazol-4-yl}phenyl)-2,6-difluorobenzamide], the IC50 in [1] was 100 to 1000 nM; in [2], less than 100 nM; in test [3], more than 1000 nM; in test [4], 100 to 1000 nM; in test [5], more than 1000 nM; in test [6], more than 1000 nM. The IC50 was more than 1000 nM in [7], less than 100 nM in test [8] and more than 1000 nM in test [9].

Turning to `CS(=O)(=O)CCN1CCN(c2ccc(Nc3nccc(-c4scnc4-c4cccc(NC(=O)c5c(F)cccc5F)c4)n3)cc2F)CC1` [Example 80, 2,6-Difluoro-N-[3-(5-{2-[(3-fluoro-4-{4-[2-(methylsulfonyl)ethyl]-1-piperazinyl}phenyl)amino]-4-pyrimidinyl}-1,3-thiazol-4-yl)phenyl]benzamide], the IC50 was less than 100 nM in test [1]; less than 100 nM in test [2]; more than 1000 nM in [3]; less than 100 nM in [4]; 100 to 1000 nM in [5]; 100 to 1000 nM in test [6]. Besides, the IC50 in [7] is 100 to 1000 nM; in test [8] it was less than 100 nM; in test [9], 100 to 1000 nM.
